# Assay results published in a melting point compilation (Tetko et al.; mined from patent text by program, amines drawn as free bases though some values may be those of a salt).
row,Structure (SMILES),melting point [°C]
1,CC(C)N1C(=O)NC2(CCN(C(=O)OC(C)(C)C)CC2)C1=O,206 to 208
2,Cc1cc2cc(OCC(=O)O)c(Cl)c(Cl)c2s1,215 to 216
3,CN1CC=C(c2c[nH]c3ccc(OS(=O)(=O)c4ccccc4)cc23)CC1,186 to 190
4,Cc1cn2c(n1)C(=O)CCC2,147 to 149
5,O=C(CCl)Nc1ccc2c(c1NC(=O)C1CC1)C(=O)c1ccccc1C2=O,191 to 192
6,Cc1cccc(N(C)C(=O)COc2cc(C(F)(F)F)no2)c1,54 to 55.5
7,Cc1c(C(=O)c2ccc(Cl)c(S(N)(=O)=O)c2)[nH]c2ccccc12,205
8,CCN1C(=O)C(=CC=C2C=C3N(C)c4ccccc4N3CC2)SC1=S,275
9,CCOC(=O)c1cn(OC)c2nc3cc(N4CC(NC)C4)c(F)cc3cc2c1=O,234
10,COC1(c2ccc(C(C)(C)C)cc2)CC1C(=O)N[C@H](C)c1ccc(NS(C)(=O)=O)c(C)c1 (stereo not given in full),231
11,CCOC=C1C(=S)c2cc(C)ccc2OC1c1ccccc1 (stereo not given),140 to 142
12,NCCCNC(=O)c1ccc(-c2ccc3nnn(Cc4ccc5ncccc5c4)c3n2)cc1F,292 to 294
13,COC(=O)Cc1nnc2n1-c1ccc(Cl)cc1C(c1ccccc1)=NC2,202 to 204
14,CNc1nc(CO)c(-c2ccncc2)s1,216 to 218
15,[N-]=[N+]=NC1CC(n2ccc(N)nc2=O)OC1CO (stereo not given),174 to 176
16,CCOC(=O)C(O)c1ccc(C2CCCCC2)cc1 (stereo not given),85 to 86
17,N#Cc1cccc2c1NC(=O)C2c1ncnc2c1cnn2C1CCCCC1 (stereo not given),> 300
18,CC(C)(C)C(=O)c1ccc(CC(Cc2ccc(C(=O)C(C)(C)C)cc2)C(=O)O)cc1,107 to 109
19,Cc1nnc(-c2ccc3occ(-c4ccc(S(C)(=O)=O)c(C)c4)c3c2)o1,173 to 174
20,O=C1NCc2cccn2-c2ccsc21,191
21,C#CCCCC(=O)c1cc(C)c(O)c(C(C)(C)C)c1,63 to 64
22,COc1ccc(-c2nc(C(F)(F)F)c[nH]2)cc1OC1CCCC1,157 to 159
23,CCOP(=O)(OCC)C(C)(C)CC1(C)NC(=O)NC1=O (stereo not given),142 to 146
24,CN1C(=O)N(C)C(=O)C2(CC=C3C(CCC4=Cc5c(cnn5-c5ccc(F)cc5)CC43C)O2)C1=O (stereo not given),188 to 189
25,S=C(NCc1ccc(Cl)cc1Cl)N1CCc2c([nH]c3ccccc23)C1c1ccc2c(c1)OCO2 (stereo not given),124 to 127

row,Structure (SMILES),melting point [°C]
1,Cc1cc(Br)ccc1-n1ccc(O)n1,208 to 210
2,OC(c1ccccc1)c1ccc(Nc2nccc(-c3cnc4ccccn34)n2)cc1 (stereo not given),213 to 216
3,COc1ccc(S(=O)(=O)Nc2ccccc2NC(=O)c2cccnc2)cc1,179 to 180
4,CN(C)c1cc2c(cc1OCc1ccccc1)CCC1C2CCC2(C)C(=O)CCC12 (stereo not given),165 to 166
5,Clc1cnc2cc(Cl)c(Cl)cc2n1,137
6,CC(C)(C(=O)c1ccc(C(=O)c2ccc(C(=O)C(C)(C)N3CCOCC3)cc2)cc1)N1CCOCC1,145 to 147
7,CNC(=O)NCCN1CCC(=C2c3ccccc3CCn3ccnc32)CC1,178
8,O=c1[nH]c2c([nH]1)-c1ccncc1CC2,> 310
9,CCS(=O)(=O)CCC(=O)NCC(=O)N1Cc2ccccc2Oc2ccc(Cl)cc21,108 to 109
10,O=C(O)c1c[nH]c2c(=O)c3cc(Cl)ccc3oc2c1=O,325 to 327
11,N#Cc1ccc2nc(N[C@@H]3CCc4ccccc43)ccc2c1,164
12,Cc1nn(-c2c(Cl)cc(C(F)(F)F)cc2Cl)c(N)c1SC(Cl)(Cl)Cl,156
13,COc1cccc(C2CCCCN(Cc3ccccc3)C2=O)c1 (stereo not given),120 to 122
14,CNC(=O)Oc1cc(C)c(NC(=O)COC)cc1C,168 to 170
15,COc1cccc2c(=O)c3ccc(Cl)cc3oc12,201 to 202
16,CNn1cccc1C(=O)c1ccccc1Cl,56 to 58
17,CNC(=O)c1cc(-c2ccc(OC)cc2)nn(CC#N)c1=O,153 to 155
18,O=C(CCCNC(=O)c1ccc(OC(F)(F)F)cc1)CCCNC(=O)c1ccc(OC(F)(F)F)cc1,151 to 152
19,CCOC(=O)c1cc2c(=O)c3cc(C(C)=O)ccc3oc2nc1N,> 300
20,Cn1nnnc1SCC(=O)C12CC3CC(CC(C3)C1)C2,112 to 113
21,CCOC(=O)c1ncn2c1[C@@H]1CCCN1C(=O)c1c(Br)cccc1-2,191 to 192
22,CC(C)c1[nH]c(=O)[nH]c1-c1cc(C(C)(C)C)c(O)c(C(C)(C)C)c1,> 290
23,N#CSc1nsnc1Cl,63 to 65
24,CCCCCCCCCCCCCCCCCCCCCCC(COC(C)=O)(COC(C)=O)NC(C)=O,94 to 95
25,CNc1nc(C)c(-c2ccc(Cl)c([N+](=O)[O-])c2)s1,220 to 232

row,Structure (SMILES),melting point [°C]
1,CCCC(=O)c1cnc2c(C(C)=O)cccc2c1Nc1ccc(O)cc1C,183 to 185
2,S=C1CSc2ccccc2CN1,215 to 219
3,CS(=O)(=O)CCNC(=O)c1ccc(-c2ccc3cnc(Nc4ccc(N5CCOCC5)cc4)nn23)cc1,241 to 242
4,Cn1cccc1-c1ccc2c(c1)C1(CCCCC1)C(=O)N2,210
5,Cn1c(Cl)cnc1C(OC(=O)OC(C)(C)C)c1cc(F)ccc1F (stereo not given),125 to 126
6,CN(C(=O)OCc1ccccc1)[C@@H](CC(N)=O)C(=O)N[C@@H](Cc1ccccc1)[C@H](O)C(=O)N1CCC[C@H]1C(=O)NC(C)(C)C,100 to 103
7,COC(=O)C1C(c2ccc(F)c(C)c2)=CCCC1(C)C (stereo not given),136 to 138
8,CCCCC(C=C1c2cc3c(cc2-c2sc(-c4cc5sccc5s4)cc21)C(=CC(CC)CCCC)c1cc(-c2cc4sccc4s2)sc1-3)CC (stereo not given),320
9,Cc1onc(-c2cccc(C(F)(F)F)c2)c1CCC(=O)O,63 to 64
10,S=C(Cc1cccs1)N1CCCCC1,51.5 to 52
11,CCOC(=O)c1ccc(CCN(C)CCCC(C#N)(C(=O)OCC)c2ccc(OC)c(OC)c2)cc1 (stereo not given),83 to 84
12,O=C(O)CCc1ccc(O)c(C=Nc2cc(S(=O)(=O)O)ccc2O)c1,> 275
13,Cc1nc2ccccc2n1CCCNCC(O)COc1ccc(CC(N)=O)cc1 (stereo not given),146 to 149
14,O=C(NC(CN1CCC(=C2c3ccccc3CCc3ccccc32)CC1)C(=O)O)OCc1ccccc1 (stereo not given),150 to 152
15,Clc1cc(Cl)c(-n2nccc2Cl)c(Cl)c1,96
16,CC(C)N(O)C(=O)Nc1cccc(S(C)(=O)=O)c1,168 to 169
17,CCCCC(=N)NC(=O)Nc1ccccc1[N+](=O)[O-],130 to 132
18,N#Cc1cnn2c1N(C(=O)CN1CCN(C(=O)OCc3ccccc3)CC1)CC=C2c1cccc(C(F)(F)F)c1,113 to 115
19,CCCCCCCCCCCCCCCCCCOc1cc(NC(=O)OC(C)(C)C)cc([N+](=O)[O-])c1,70 to 72
20,COC(=O)C(=O)c1ccc(OCCOc2cc3ccccc3c3ccccc23)cc1,147 to 148
21,O=C(O)C(c1ccc(Cl)cc1)c1ccc(-n2ncc(=O)[nH]c2=O)cc1Cl (stereo not given),196
22,CCN1C(=O)C(C(=O)Nc2cccc(C(=O)Nc3ccc(Br)cc3)c2)c2cc(C(=O)c3ccccc3)ccc21 (stereo not given),139 to 142
23,CCN(CC)C(=S)SCCNC(=O)CCNC(=O)OCc1ccccc1,90 to 93
24,N#CC(CCC1C2CCN1CC2)(c1ccccc1)c1ccccc1 (stereo not given),79 to 81
25,O=C(N[C@@H](Cc1ccccc1)C(=O)O)OCC(Cl)(Cl)Cl,126

row,Structure (SMILES),melting point [°C]
1,COc1cc(-c2cnc3[nH]cc(C(=O)C45CC6CC(CC(C6)C4)C5)c3n2)cc(OC)c1OC,267 to 268
2,O=c1c(Cl)nc2ccccc2n1-c1ccc(Cl)cc1,> 300
3,Cc1ncccc1CN(CCn1cc(C)c2occc2c1=O)Cc1ccc2c(c1)NC(=O)C(C)(C)C(=O)N2CC1CC1,220 to 221
4,COc1cc(C2C3=C(COC3=O)Nc3ccc4cn[nH]c4c32)ccc1O (stereo not given),238 to 240
5,CCOC(=O)c1cc(CC#N)c(C)s1,55 to 57
6,COC(=O)CC(NC(=O)C(C)(C)C)C(C)=O (stereo not given),68 to 69
7,COc1ccc(Nc2ccc(Nc3ccnc4cc(-c5ccc(OC)nc5)sc34)cc2)cc1,175 to 184
8,Fc1cccc(F)c1-c1nc(/C=C/c2ccc(-c3ccc(OC(F)(F)F)cc3)cc2)no1,122 to 123
9,CC(c1oc2ccccc2c(=O)c1-c1cccc(F)c1)n1nc(-c2ccc(Cl)c(O)c2)c2c(N)ncnc21 (stereo not given),134 to 136
10,CC(N)(C(N)=O)C(F)(F)F (stereo not given),84 to 85
11,Cc1ccccc1-c1c(C(=O)NCc2cc(C(F)(F)F)cc(C(F)(F)F)c2)n(C)c(=O)c2ccccc12,168 to 170
12,Cc1cc(-c2cnn3c(C(F)(F)F)cc(-c4ccc(C(F)(F)F)c(C)c4)nc23)cc(C)n1,253
13,O=C1C=C(C(F)F)C(=O)c2ccccc21,74
14,CCC(=O)c1cc(SC)cc(CNC(=O)CCl)c1O,202 to 204
15,CSCc1ccc(C(=O)c2ccc(Cl)cc2)cc1,59 to 61
16,O=C(O)c1cn(-c2ccc(F)cc2)c(-c2ccc(Cl)cc2)cc1=O,199 to 204
17,CN(C)c1ccc(C2=CCC(C)(C)c3cc(C(O)C#Cc4ccc(C(=O)O)cc4)ccc32)cc1 (stereo not given),91
18,Cc1ccccc1CC(=NC#N)NC(NC(=O)CCCc1cccs1)C(C)(C)C (stereo not given),154 to 155
19,O=C(CCl)c1ccc(-c2ccccc2Cl)cc1,47
20,Clc1ccc(Nc2cncc(-n3cc4ccccc4n3)n2)cc1,249 to 252
21,CC(=O)CC(=O)Nc1cccc(OC(C)=O)c1,101
22,O=C(Nc1cc(Cl)ccn1)c1ccn2c1CSC2c1cccnc1 (stereo not given),190
23,COC1=C(CCO)C(=O)C(OC)=C(CCCCCC2=C(OC)C(=O)C(CCO)=C(OC)C2=O)C1=O,97 to 99
24,O=C(C=Cc1ccco1)CCCCCl,50 to 52
25,COc1ccc(-c2ccc(N)cc2)cc1OC1CCCC1,94 to 95
